Columns and labels:
HBV = test: HepAD38 antiviral assay: reduction of viral product accumulation; format: cell-based; details: Hepatitis B virus, 120 h; HepAD38 cells, tetracycline removed; harvest five days after compound addition; viral product (virion DNA by qPCR, or HBsAg/HBeAg by ELISA) reduced by 50% relative to no drug controls
Procedure: (§1) Methods: HepAD38 cells were maintained as previously reported (Ladner et al, Antimicrob. Agents Chemother. 1997, 4, 1715). Briefly, cells were passaged upon attaining confluency in DMEM/F12 media in the presence of 10% FBS, Penn/Strep, 250 μg/mL G418, and 1 ug/ml tetracycline. Compounds were screened by first washing cells three times with PBS to remove tetracycline, and plating in 96 well plates at 35,000 cells/well. Compounds dissolved in DMSO were then diluted 1:200 into wells containing cells. Five days after compound addition, material was harvested for analysis. For an extended 8 day analysis, cells were plated and treated as described above, but media and compound were refreshed on day 2 and day 5 post initial treatment.
On harvest day, virion DNA was obtained by lysing with Sidestep Lysis and Stabilization Buffer and then quantified via quantitative real time PCR. Commercially available ELISA kits were used to quantitate the viral proteins HBsAg (Alpco) or HbeAg (US Biological) by following the manufacturer's recommended protocol after diluting samples to match the linear range of their respective assays. Irrespective of readout, compound concentrations that reduce viral product accumulation in the cell lysates or supernatants by 50% relative to no drug controls (EC50) are reported; EC50 ranges are as follows: A<0.1 μM; B 0.1-0.2 μM; C>0.2 μM.

[1] = Compound toxicity, ATPLite total ATP levels; format: cell-based; details: human, HepAD38 cells; 15,000 cells/well; three days after compound addition; total ATP levels reduced by 50% relative to no drug controls
Procedure: as §1
Compound toxicity was evaluated by seeding cells at 15,000 cells/well and treating with compound as described above.

`O=C(Nc1cc(F)c(F)c(F)c1)N1Cc2c(N3CCCS3(=O)=O)cnn2C[C@@H]1C1CC1` [Example 73] showed an EC50 (HBV) of under 0.1 µM and a CC50 at 3 days [1] of over 25 µM.

Source: patent US10729688B2, “Hepatitis B antiviral agents” (Enanta Pharmaceuticals, Inc., priority 2018, dated 2020)
